Test results as given in patent US20210094922A1, “Dyes for Analysis of Soluble Protein Aggregates or Misfolded Protein Oligomers” (The Penn State Research Foundation, priority 2018, published 2021).
Entries after “also recorded” stand apart in the source; their conditions may differ.

Columns and labels:
SOD1(V31A)-Halo [1] = biological target: SOD1(V31A)-Halo (Rhodococcus rhodochrous, UniProt P0A3G2, A155T/A167V/A172T/A224E/C128F/C176G/D78G/E160K/E257K/H272N/K175M/K195N/L47V/L88M/N227D/P291S/S58T/T264A/Y273L/Y87F); experiment: AggTag imaging of NaAsO2-induced SOD1(V31A)-Halo aggregation in HEK293T cells; type: cell-based, human; parameters: expressed in transfected cells; host or cells: HEK293T
SOD1(V31A)-Halo (Rhodococcus rhodochrous, UniProt P0A3G2, A155T/A167V/A172T/A224E/C128F/C176G/D78G/E160K/E257K/H272N/K175M/K195N/L47V/L88M/N227D/P291S/S58T/T264A/Y273L/Y87F), sequence (P0A3G2 other isoform, or with tags, fused parts or gaps with the stated changes): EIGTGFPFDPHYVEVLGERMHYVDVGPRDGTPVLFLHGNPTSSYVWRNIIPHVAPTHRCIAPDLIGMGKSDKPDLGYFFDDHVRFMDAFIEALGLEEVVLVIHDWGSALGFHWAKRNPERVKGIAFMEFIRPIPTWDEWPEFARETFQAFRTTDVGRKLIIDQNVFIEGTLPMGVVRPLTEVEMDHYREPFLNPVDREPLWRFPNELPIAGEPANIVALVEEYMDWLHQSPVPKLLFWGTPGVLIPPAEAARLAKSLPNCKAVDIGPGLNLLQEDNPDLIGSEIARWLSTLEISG
Procedure: (§1) During protein expression, medium is supplemented with 1 μM of coumarin ligand and 1 μM of 4 to enable a simultaneous dual-probe labeling to Halo-Tag. Note: Halo-Tag locates in both cytoplasm and nucleus. Blue: fluorescence from the Halo-Tag⋅coumarin conjugate. Red: fluorescence from the Halo-Tag-4 conjugate. Scale bar: 10 μm.
(§2) Confocal microscope imaging. The HEK293T cells were seeded at 25% confluency 24 h prior to transfection in poly-D-lysine coated 35 mm glass bottom dishes (MatTek Corporation). Cells were grown in DMEM media supplemented with 10% FBS and Penicillin-Streptomycin antibiotics until they reached 50-60% confluency. Transfection was carried out using X-tremeGene™ 9 DNA transfection reagent (Roche) according to the manufacturer's instructions. Proteins were expressed for 24 h prior to analyses. To label proteins with Halo-Tag fusion, protein expression was carried out in the presence of 1 μM 4 or 1 μM TMR Halo-Tag ligand to form covalent conjugate with the Halo-Tag domain. For a dual-probe labeling scheme, 1 μM 4 and 1 μM coumarin Halo-Tag ligand to simultaneously form covalent conjugate with the Halo-Tag domain.
(§3) HEK293T cultures were seeded at 25% confluency 24 h prior to transfection in 12-well plate for time dependent fluorescence plate reader analysis or 35 mm glass bottom culture dishes (Poly-d-lysine coated, MatTek Corporation). Cells were grown in DMEM medium supplemented with 10% FBS and penicillin-streptomycin antibiotics until they reached 50-60% confluency. Transfection was performed using X-tremeGene™ 9 DNA transfection reagent (Roche). After 24 h of protein expression and co-translational labeling, medium was replaced with fresh DMEM to diffuse out unbound ligands. After 30 min, media was replaced by fresh DMEM medium containing DMSO vehicle or NaAsO2 (50 μM). […] At indicated time points, fluorescence reading was obtained using a Tecan M1000Pro fluorescence plate reader. Fluorescence intensity was recorded at Ex=530 nm/Em=600 nm for 3 and Ex=450 nm/Em=480 nm for ThT. […] Fluorescence of 3 was measured at Ex=530 nm/Em=600 nm.

SOD1(V31A)-Halo [2] = biological target: SOD1(V31A)-Halo (UniProt P00441+P0A3G2, A155T/A167V/A172T/A224E/C128F/C176G/D78G/E160K/E257K/H272N/K175M/K195N/L47V/L88M/N227D/S58T/T264A/V32A/Y273L/Y87F); experiment: as above; type: cell-based, human; parameters: expressed in transfected cells; host or cells: HEK293T; settings: NaAsO2
SOD1(V31A)-Halo (UniProt P00441+P0A3G2, A155T/A167V/A172T/A224E/C128F/C176G/D78G/E160K/E257K/H272N/K175M/K195N/L47V/L88M/N227D/S58T/T264A/V32A/Y273L/Y87F), sequence (P00441+P0A3G2 fused with the stated changes): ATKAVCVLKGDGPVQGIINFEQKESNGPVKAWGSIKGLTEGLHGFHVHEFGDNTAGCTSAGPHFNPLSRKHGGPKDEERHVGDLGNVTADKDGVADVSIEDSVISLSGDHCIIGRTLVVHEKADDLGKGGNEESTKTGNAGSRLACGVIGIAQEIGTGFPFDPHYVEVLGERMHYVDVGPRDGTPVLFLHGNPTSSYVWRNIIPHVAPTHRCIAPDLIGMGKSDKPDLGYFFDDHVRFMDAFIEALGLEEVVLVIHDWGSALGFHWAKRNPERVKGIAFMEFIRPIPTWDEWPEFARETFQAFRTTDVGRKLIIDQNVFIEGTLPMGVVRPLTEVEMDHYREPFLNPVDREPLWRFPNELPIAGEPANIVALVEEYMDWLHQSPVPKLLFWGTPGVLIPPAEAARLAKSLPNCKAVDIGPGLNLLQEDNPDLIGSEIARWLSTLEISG
Procedure: as §1, §2, §3

Htt-110Q-Halo = biological target: T1, Htt-110Q-Halo (Homo sapiens, UniProt P42858); experiment: Two-color imaging of Htt-110Q-Halo in HEK293T cells; type: cell-based
T1 construct: using the Huntingtin exon 1 protein (Htt) with expansion of a polyglutamine tract within its N-terminal domain; expressed in transfected cells; host or cells: HEK293T
T1 sequence (P42858 with tags, fused parts or gaps): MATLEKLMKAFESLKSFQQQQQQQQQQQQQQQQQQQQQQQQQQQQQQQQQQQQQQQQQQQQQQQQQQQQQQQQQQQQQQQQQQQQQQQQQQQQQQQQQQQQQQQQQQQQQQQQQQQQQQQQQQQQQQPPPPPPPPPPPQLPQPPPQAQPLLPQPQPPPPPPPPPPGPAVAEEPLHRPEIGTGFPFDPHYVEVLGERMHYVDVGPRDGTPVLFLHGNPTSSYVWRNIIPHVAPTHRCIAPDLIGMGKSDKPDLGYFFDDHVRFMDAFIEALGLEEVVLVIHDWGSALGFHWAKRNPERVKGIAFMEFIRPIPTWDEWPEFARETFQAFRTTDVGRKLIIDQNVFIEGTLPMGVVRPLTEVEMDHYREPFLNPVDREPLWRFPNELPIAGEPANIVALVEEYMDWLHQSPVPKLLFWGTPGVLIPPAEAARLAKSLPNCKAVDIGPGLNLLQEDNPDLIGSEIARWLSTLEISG
Text: (B-C) Excitation and emission spectra of 4 (with misfolded oligomers of SOD1-A4V-Halo) and 5 (with insoluble aggregates of SOD1-A4V-Halo).
Combination of 4 and 5 enables a two-color imaging strategy to differentiate insoluble aggregates from soluble oligomers. The inventors carried out live cell imaging experiments, wherein 4 or 5 was used to visualize aggregation of POI-Halo fusion proteins in HEK293T cells. […] To this end, the inventors labeled HEK293T cells expressing SOD1-A4V-Halo simultaneously with 4 and 5 (both at 0.5 μM) for 24 h and treated cells with 5 μM MG132 for 8 h. […] The inventors further carried out experiments using Htt-PolyQ with 110 glutamine repeats (Htt-110Q-Halo).

CN(C)c1ccc(/C=C2N=C(/C=C/c3ccc(N(CCO)CCO)cc3)N(CC(=O)N[C@H]3CC[C@H](C(=O)NCCOCCOCCCCCCCl)CC3)C\2=O)cc1 [Compound 4, (1r,4r)-4-(2-((Z)-2-((E)-4-(bis(2-hydroxyethyl)amino)styryl)-4-(4-(dimethylamino)benzylidene)-5-oxo-4,5-dihydro-1H-imidazol-1-yl)acetamido)-N-(2-(2-((6-chlorohexyl)oxy)ethoxy)ethyl)cyclohexanecarboxamide]
fluorescence in cells co-expressing Halo-Tag and SOD1-V31A-GFP (SOD1(V31A)-Halo [1]; NaAsO2 stressor 50 μM, 18 h, 37° C.): turn-on fluorescence was not observed | fluorescence in cells expressing Halo-Tag alone under stress (SOD1(V31A)-Halo [1]; NaAsO2 stressor, Halo-4 conjugate): remained dark in stressed cells; also recorded: fluorescence was not observed | fluorescence of SOD1(V31A)-Halo labeled cells before and after stress (SOD1(V31A)-Halo [2]): dark before stress but exhibited both diffuse and punctate fluorescent structures in stressed cells | fluorescence of Htt-110Q-Halo inclusions (Htt-110Q-Halo): exhibit fluorescence from both 4 and 5
